Results on 2 molecules are retold here after patent US7084301B2 (Ranbaxy Laboratories Limited, priority 2003, dated 2006).

Assay [1] concerns the target T1, human α1A-adrenoceptors (Homo sapiens, UniProt P35348).
T1 sequence (P35348 1-466): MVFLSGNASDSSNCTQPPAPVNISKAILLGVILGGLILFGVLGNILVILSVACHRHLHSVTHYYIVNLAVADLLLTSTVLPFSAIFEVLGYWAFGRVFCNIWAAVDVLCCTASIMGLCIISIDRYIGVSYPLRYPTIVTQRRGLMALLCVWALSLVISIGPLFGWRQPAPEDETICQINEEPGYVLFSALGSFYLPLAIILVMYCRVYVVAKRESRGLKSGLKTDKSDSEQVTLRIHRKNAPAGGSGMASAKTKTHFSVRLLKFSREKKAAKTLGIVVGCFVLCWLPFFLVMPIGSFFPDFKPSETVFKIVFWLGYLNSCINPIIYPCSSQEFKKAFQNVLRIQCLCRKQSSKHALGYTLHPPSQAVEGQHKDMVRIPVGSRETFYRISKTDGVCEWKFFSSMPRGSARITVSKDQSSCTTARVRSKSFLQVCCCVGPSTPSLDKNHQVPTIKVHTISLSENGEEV
Put plainly: Radioligand-receptor binding assay, human recombinant α1A-adrenoceptor, [3H]prazosin. The settings on record: human recombinant receptors in CHO cells, mean ± SEM; read-out: pKi α1A (converted). How it is done: (§1) Chinese hamster ovary (CHO) cells which had been stably transfected with human α1A, α1B, or α1D-adrenoceptors (Keffel et al., Biochem. Biophys. Res. Commun., 2000, 272, 906–11) were cultured in an atmosphere of 5% CO2/95% air at 37° C. in F-12 HAM medium supplemented with 10% heat-inactivated fetal calf serum, 1 mM glutamine, 100 U/ml penicillin and 0.1 mg/ml streptomycin. Selection pressure was maintained by regular addition of geneticin to the culture medium.
(§2) Competitive radioligand binding to the cloned subtypes of […] was performed using [^3H]prazosin as the radioligand as described by Michel et al, Br. J. Pharmacol., 98, 883–889 (1989) with minor modifications. Experiments were performed in binding buffer consisting of 50 mM Tris, 10 mM MgCl2 and 0.5 mM EDTA at pH 7.5 in a total assay volume of 1000 μl. The protein content typically was 40–60 μg/assay. The mixtures were incubated at 25° C. for 45 minutes. Incubations were terminated by rapid vacuum filtration over GF/C filters followed by two washes of the filters each with 10 ml ice-cold incubation buffer. Non-specific binding was defined as binding in the presence of 10 μM phentolamine.
(§3) The IC50 & Kd were estimated by using the non-linear curve fitting program using G Pad Prism software. The value of inhibition constant Ki was calculated from competitive binding studies by using Cheng & Prusoff equation [Cheng & Prusoff, Biochem. Pharmacol., 22, 3099–3108 (1973)], Ki=IC50/(1+L/Kd), where L is the concentration of [^3H] prazosin used in the particular experiment. Kd of [^3H] prazosin was determined from saturation binding studies. The values were tabulated as mean±SEM of pKi values, where pKi is the −log of Ki value.

For assay [2], the target named is T2, human α1D-adrenoceptors (Homo sapiens, UniProt P25100).
T2 sequence (P25100 1-572): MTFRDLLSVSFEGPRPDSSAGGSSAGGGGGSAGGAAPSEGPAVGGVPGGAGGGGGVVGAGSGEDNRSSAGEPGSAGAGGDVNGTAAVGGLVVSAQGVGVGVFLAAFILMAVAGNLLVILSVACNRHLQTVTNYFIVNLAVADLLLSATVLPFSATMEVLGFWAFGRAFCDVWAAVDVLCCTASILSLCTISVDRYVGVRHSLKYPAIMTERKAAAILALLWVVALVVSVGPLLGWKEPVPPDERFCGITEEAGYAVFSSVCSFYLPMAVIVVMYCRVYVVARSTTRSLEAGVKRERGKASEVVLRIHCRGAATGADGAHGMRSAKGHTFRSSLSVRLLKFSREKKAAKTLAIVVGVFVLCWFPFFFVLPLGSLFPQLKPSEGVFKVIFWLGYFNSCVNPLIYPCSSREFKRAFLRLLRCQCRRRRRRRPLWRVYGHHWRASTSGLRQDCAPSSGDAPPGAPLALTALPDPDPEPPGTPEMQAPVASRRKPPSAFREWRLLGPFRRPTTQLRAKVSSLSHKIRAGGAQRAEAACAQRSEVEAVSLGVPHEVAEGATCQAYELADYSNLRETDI
Put plainly: Radioligand-receptor binding assay, human recombinant α1D-adrenoceptor, [3H]prazosin. How it is done:
as §1, §2, §3

Assay [3] has as its target T3, human α1B-adrenoceptors (Homo sapiens, UniProt P35368).
T3 sequence (P35368 1-520): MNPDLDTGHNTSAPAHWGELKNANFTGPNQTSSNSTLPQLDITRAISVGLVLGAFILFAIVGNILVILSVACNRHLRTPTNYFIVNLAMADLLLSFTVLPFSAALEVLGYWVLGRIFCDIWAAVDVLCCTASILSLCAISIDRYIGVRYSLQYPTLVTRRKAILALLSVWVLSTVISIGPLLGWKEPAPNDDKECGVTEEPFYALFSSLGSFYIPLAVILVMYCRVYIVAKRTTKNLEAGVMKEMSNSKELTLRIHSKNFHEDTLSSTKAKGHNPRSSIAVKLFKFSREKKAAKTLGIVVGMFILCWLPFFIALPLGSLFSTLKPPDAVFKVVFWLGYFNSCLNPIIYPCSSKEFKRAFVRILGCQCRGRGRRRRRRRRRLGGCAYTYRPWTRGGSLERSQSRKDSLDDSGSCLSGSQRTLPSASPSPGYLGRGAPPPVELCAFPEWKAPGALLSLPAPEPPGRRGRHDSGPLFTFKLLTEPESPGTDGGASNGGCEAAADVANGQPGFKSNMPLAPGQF
Put plainly: Radioligand-receptor binding assay, human recombinant α1B-adrenoceptor, [3H]prazosin. On the procedure:
as §1, §2, §3

Turning to `CCOc1ccccc1OCCN[C@@H](C)Cc1ccc(O)c(S(N)(=O)=O)c1` [(S)-isomer], the Ki in assay [1] was 2.24 nM; in assay [2], 7.94 nM; in assay [3], 21.9 nM.
The corresponding values for `CCOc1ccccc1OCCNC(C)Cc1ccc(O)c(S(N)(=O)=O)c1` (racemic) [Racemate] are 0.0832 nM, 0.214 nM and 1.1 nM.
